The record followed here is patent publication US20110046223A1, “TREATMENT OF NEUROFIBROMATOSIS” (RAMOT AT TEL-AVIV UNIVERSITY LTD., priority 2006, published 2011).

The subject of test [1] is NF-1+/+ SV40 MEFs. The test is described as follows: colchicine-induced death, cell viability by MTT assay. It is filed as cell-based, mouse. Conditions: NF-1+/+ cells; 75 μM FTS or vehicle 24 h, then colchicine 4.5 h. Here is the method:
(§1) Human NF-1 ST88-14 MPNST, non-NF-1 STS26T MPNST, and the different primary and SV40-immortalized NF-1 genotypes (NF-1^−/−, NF-1^+/−, and NF-1^+/+) of mouse embryonic fibroblasts (MEFs) were grown in high-glucose Dulbecco's modified Eagle's medium (DMEM) supplemented with 10% heat-inactivated fetal calf serum (both from Biological Industries, Beit Ha Emek, Israel) with 0.0004% β-mercaptoethanol added to the MEF growth medium only.
(§2) The three primary NF-1 MEF genotypes were immortalized by transfection with SV40 whole genome DNA (a gift from Dr. Atan Gross, The Weizmann Institute of Science) using the lipofectamine transfection reagent (InvitroGen Life Technologies, Paisley, UK). One day before transfection, primary MEFs were seeded at a density of 2×10^5 cells per well in 6-well plates. To each dish we added 1 ml of DNA-lipofectamine mixture, 0.1 μg SV40 whole genome DNA, and 10 μg of lipofectamine in 1 ml of OptiMEM (InvitroGen), according to the manufacturer's instructions. The cells were split 24 h after transfection and seeded in 10-cm^2 dishes at a density of 1×10^3 to 1×10^4 cells per dish. Immortalized clones from each NF-1 genotype were collected 14 days after transfection.
(§3) Cell viability was determined by the MTT assay.
On the technique in general: Formazan colour is commonly taken as a measure of viable cells.

Test [2] relates to NF-1−/− and NF-1+/− SV40 MEFs. Described as above. It is filed as cell-based, mouse. The conditions noted are these: NF-1−/− and NF-1+/− cells; 75 μM FTS or vehicle 24 h, then colchicine 4.5 h. Here is the method: as §1, §2, §3

`COc1cc2c(c(OC)c1OC)-c1ccc(OC)c(=O)cc1[C@@H](NC(C)=O)CC2` [colchicine, Acetamide, N-((7S)-5,6,7,9-tetrahydro-1,2,3,10-tetramethoxy-9-oxobenzo(a)heptalen-7-yl)-]: the “cell survival / colchicine-induced cell death” value is “induced death” in test [1] and “only a small effect on cell survival” in test [2].
